We go through 3 compounds from ChEMBL document CHEMBL4732219, “Synthesis and evaluation of cyclopentane-based muraymycin analogs targeting MraY” (Eur J Med Chem, 2021).

Structures are written as SMILES. Values after ≈ are worked out from the molar mass of the structure shown.

The test system of one experiment is Staphylococcus aureus. The experiment is described as follows: Antibacterial activity against Staphylococcus aureus SA113 assessed as growth inhibition. Type of experiment: functional.
Experiment [1] has as its target T1, Phospho-N-acetylmuramoyl-pentapeptide-transferase (Aquifex aeolicus (strain VF5), UniProt O66465).
T1 sequence (O66465 whole entry): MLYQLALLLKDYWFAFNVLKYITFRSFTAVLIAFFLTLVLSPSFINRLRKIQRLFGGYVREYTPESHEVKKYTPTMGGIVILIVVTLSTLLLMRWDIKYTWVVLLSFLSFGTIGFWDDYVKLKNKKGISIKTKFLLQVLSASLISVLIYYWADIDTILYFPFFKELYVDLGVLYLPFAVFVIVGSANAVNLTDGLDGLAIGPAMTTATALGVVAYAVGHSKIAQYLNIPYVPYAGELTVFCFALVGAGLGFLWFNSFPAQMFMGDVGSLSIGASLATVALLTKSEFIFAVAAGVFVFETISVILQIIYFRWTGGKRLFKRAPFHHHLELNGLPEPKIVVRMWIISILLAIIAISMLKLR
Briefly: Inhibition of Aquifex aeolicus MraY using UDP-MurNAc-pentapeptide as substrate measured after 5 mins by UMP-Glo glycosyltransferase assay.

As usually defined, the MIC is the lowest concentration found to suppress growth. Usually IC50 stands for the concentration that inhibits the measured activity by half. Take `CCCCCCCCCCCCCCCCC(=O)N[C@@H](CCCNC(=N)N)C(=O)NCCCN[C@H](C(=O)OC)[C@H](O[C@@H]1O[C@H](CN)[C@@H](O)[C@H]1O)[C@@H]1CC[C@H](n2ccc(=O)[nH]c2=O)C1`: the MIC in the experiment with Staphylococcus aureus was 54 µg/mL (≈ 60.4 µM). Moreover, in experiment [1], the IC50 turned out to be 75 µM.

In turn, `CC(C)(C)OC(=O)[C@@H](NC(=O)OCc1ccccc1)[C@H](O[C@@H]1O[C@H](CN)[C@@H](O)[C@H]1O)[C@@H]1CC[C@H](n2ccc(=O)[nH]c2=O)C1` had an IC50 in experiment [1] of 340 µM.

`NC[C@H]1O[C@@H](O[C@H]([C@@H]2CC[C@H](n3ccc(=O)[nH]c3=O)C2)[C@H](NC(=O)OCc2ccccc2)C(=O)O)[C@H](O)[C@@H]1O`: the IC50 in experiment [1] amounted to 500 µM. This IC50 and that of the compound before are within 1.5-fold of each other.
